pIC50: −log10 of the molar value. Where two headings read alike, the source gives them in different places.
Tests used:
[1] = Animal pharmacokinetic studies in rats; type: in vivo; conditions: male rats, 5 mg/kg single intragastric administration, plasma
Experimental: 3. Animal Pharmacokinetic Studies of Compounds:
Animal pharmacokinetic experiments were conducted with 3 healthy adult male rats from Beijing Vital River Laboratory Animal Technology Co., Ltd. The compound was suspended in a 20% solution of sulfobutyl ether-β-cyclodextrin (W/W/V) at a concentration of 1 mg/mL, The rats were subjected to 5 mg/kg suspension of the compound by single intragastric administration with a dosing volume of 5 mL/kg. Animals were fasted overnight prior to the experiment from 10 h before dosing to 4 h alter dosing. Blood was collected 0.25, 0.5, 1, 2, 4, 6, 8 and 24 h after administration. Animals were lightly anesthetized with isoflurane, and approximately 0.4 ml, of whole blood was collected from the orbital venous plexus with a glass blood collection tube, placed in a heparin anticoagulant tube, centrifuged at 4200 rpm for 5 min at 4° C., plasma transferred to the centrifuge tube, and stored at −80° C. until analysis. Test compounds extracted from rat plasma using acetonitrile protein precipitation and internal standard (Warfarin or Propranolol) were used for Plasma sample analysis, and the extracts were analyzed by LC/MS/MS. The measured plasma concentration-time data for individual animals were analyzed using non-compartmental model of WinNonlin (version 5.2.1; Pharsight) software to obtain the following pharmacokinetic parameters: maximum (peak) plasma drug concentration Cmax; a peak time Tmax; half-life T1/2 and the area under the plasma concentration-time curve front time 0 extrapolated to infinite time AUC0-inf.

[2] = molecular target: T1, WEE1 kinase (Homo sapiens, UniProt P30291); assay: WEE1 kinase binding assay (LanthaScreen EU); conditions: WEE1 kinase 20 nM, Kinase Tracer 178 100 nM, 23° C. for 60 min, read-out: WEEI (IC50)
T1 construct: purchased Carna bioscience
T1 sequence (P30291 whole entry): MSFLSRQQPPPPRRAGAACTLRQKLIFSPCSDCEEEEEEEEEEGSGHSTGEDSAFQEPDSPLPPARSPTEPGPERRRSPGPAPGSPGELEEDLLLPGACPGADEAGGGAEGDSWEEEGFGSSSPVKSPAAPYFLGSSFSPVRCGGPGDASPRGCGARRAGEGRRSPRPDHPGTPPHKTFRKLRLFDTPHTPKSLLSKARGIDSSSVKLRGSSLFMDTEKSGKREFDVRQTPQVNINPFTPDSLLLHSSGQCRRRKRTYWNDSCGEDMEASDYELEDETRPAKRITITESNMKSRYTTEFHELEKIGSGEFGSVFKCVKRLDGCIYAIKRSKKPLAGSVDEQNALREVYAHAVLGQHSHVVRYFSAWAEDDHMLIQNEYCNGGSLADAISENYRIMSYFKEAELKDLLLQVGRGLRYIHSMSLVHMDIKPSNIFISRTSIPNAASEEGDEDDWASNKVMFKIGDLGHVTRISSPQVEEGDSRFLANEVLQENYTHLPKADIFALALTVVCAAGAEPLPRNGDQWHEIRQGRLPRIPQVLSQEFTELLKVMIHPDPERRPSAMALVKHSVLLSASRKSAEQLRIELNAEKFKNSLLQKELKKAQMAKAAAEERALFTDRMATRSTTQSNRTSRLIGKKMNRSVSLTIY
Experimental: 1. Assay for WEE1 Kinase Inhibitory Activity (IC50) on Compounds
The WEE1 kinase binding assay was established and optimized with LanthaScreen EU for the determination of the activity of compounds. 10 mM compounds were subjected to ten-fold gradient dilution in 100% DMSO (6 concentrations in total), 5 μL of diluent from each concentration was added to 45 μL of reaction buffer (50 mM HEPES (4-hydroxyethylpiperazine ethanesulfonic acid), pH 7.5, 10 mM MgCl2 (magnesium chloride), 1 mM EGTA (ethylene glycol diethyl ether diamine tetraacetic acid), 0.01% Brij-35 (polyoxyethylene lauryl ether)) for blending. On this basis, 2 μL diluent from each concentration was added to 48 μL of reaction buffer for blending as a 4*compound (final concentrations of 1000, 100, 10, 1, 0.1, 0 nM) for later use. Reaction buffer was used to formulate 4*WEE1 kinase (purchased from Carna bioscience, a final concentration of 20 nM), 4*LanthaScreen EU-anti-GST Antibody (purchased from Invitrogen, PV5594, a fuel concentration of 2 nM), and 4*Kinase Tracer 178 (purchased from Invitrogen, PV5593, a final concentration of 100 nM). 2.5 μL of 4*compound was added to a 384-well plate (OptiPlate-384, purchased from PerkinElmer), followed by adding 2.5 μL of 4*WEE1 kinase, standing for 5 min at room temperature. Then 2.5 μL of 4*LanthaScreen EU-anti-GST Antibody was added followed by 2.5 μL of 4*Kinase Tracer 178. The reaction was started by centrifugation (a total reaction volume of 10 μL). The 384-well plate was wrapped with tin foil paper and placed in an incubator at 23° C. for 60 min. Fluorescence values (excitation at 320 nm, detecting emitted light at 665 nm and 615 nm, and a ratio of the two as enzyme activity) were read on Envision (purchased from PerkinElmer). The enzyme activity of each compound was measured at 6 concentrations, and the IC50 value of the compound was calculated using GraFit6.0 software (Erithacus Software).
The aforementioned “*” refers to multiplying, representing multiples.

[3] = tested on: Human non-small cell lung cancer cells NCI-H1299; assay: NCI-H1299 cell proliferation inhibition (CellTiter-Glo); type: cell-based; conditions: cultured 3 days, table head NCI-H1975, method NCI-H1299
Experimental: 2. Determination of Cell Proliferation Activity of Compounds:
NCI-H1299 cell proliferation inhibition screening method was established using CellTiter-fib detection reagent from Promega.
Human non-small cell lung cancer cells NCI-H1299 were cultured in 25 cm^2 or 75 cm^2 plastic tissue culture flasks (Corning) filled with DMEM (Gibco) medium supplemented with 10% fetal bovine serum (Hyclone) under 37° C., 95% air, and 5% CO2, and subcultured 2-3 times a week.
Cells were seeded at 1000 cells/well in a 96-well cell culture plate (Corning), 195 μL/well, and cultured under 37° C., 95% air, and 5% CO2. The next day test compound was added: 10 mM compounds (dissolved in DMSO) were subjected to 3-fold gradient dilution in DMSO, 2 μL of diluent from each concentration was added to 48 μL of serum-fret medium, and finally 5 μL of the diluted compound was added to the plate seeded with cells. The final concentration of DMSO in the cell culture was 0.1% and the foul concentration of the test compound was 0.3 nM-10 μM. The cells were cultured at 37° C. for 3 days.

Structure (SMILES) | pIC50 [2] | pIC50 ([3]; Homo sapiens, 72 h) | further results
CN1CCN(C2CCN(c3ccc(Nc4ncc5cc(C6CC6)n(-c6cccc(C(C)(C)O)n6)c5n4)cc3F)CC2)CC1 [Example 77, 2-(6-(2-((3-fluoro-4 (4-(4-methylpiperazin-1-yl)piperidin-1-yl)phenyl)amino)-6-cyclopropyl-7H-pyrrolo[2,3-d]pyrimidin-7-yl)pyridin-2-yl)propan-2-ol] | – | – | half-life ([1]; rat, po): 13.6 h; AUC(0-inf) ([1]; rat, po, read-out: AUC0-inf): 2340 ng·h/mL; Cmax ([1]; rat, po, read-out: Cmax): 98 ng/mL; Tmax ([1]; rat, po, read-out: Tmax): 5.33 h
CN1CCN(C2CCN(c3ccc(Nc4ncc5c(F)c(C6CC6)n(-c6cccc(C(C)(C)O)n6)c5n4)cc3)CC2)CC1 [Example 58, 2-(6-(2-((4-(4-(4-methylpiperazin-1-yl)piperidin-1-yl)phenyl)amino)-5-fluoro-6-cyclopropyl-7H-pyrrolo[2,3-d]pyrimidin-7-yl)pyridin-2-yl)propan-2-ol] | – | – | AUC(0-inf) [1]: 1751 ng·h/mL; Cmax [1]: 83 ng/mL; T1/2 [1]: 10.9 h; Tmax [1]: 6.0 h
CN1CCN(c2ccc(Nc3ncc4c(F)c(C5CC5)n(-c5cccc(C(C)(C)O)n5)c4n3)cc2)CC1 [Example 57, 2-(6-(2-((4-(4-methylpiperazin-1-yl)phenyl)amino)-5-fluoro-6-cyclopropyl-7H-pyrrolo[2,3-d]pyrimidin-7-yl)pyridin-2-yl)propan-2-ol] | – | – | half-life ([1]; rat, po): 11.2 h; AUC(0-inf) ([1]; rat, po, read-out: AUC0-inf): 1080 ng·h/mL; Cmax ([1]; rat, po, read-out: Cmax): 68 ng/mL; Tmax ([1]; rat, po, read-out: Tmax): 2.3 h
CN1CCN(C2CCN(c3ccc(Nc4ncc5cc(C6CC6)n(-c6cccc(C(C)(C)O)n6)c5n4)cc3)CC2)CC1 [Example 56, 2-(6-(2-((4-(4-(4-methylpiperazin-1-yl)piperidin-1-yl)phenyl)amino)-6-cyclopropyl-7H-pyrrolo[2,3-d]pyrimidin-7-yl)pyridin-2-yl)propan-2-ol] | – | – | half-life ([1]; rat, po): 7.6 h; AUC(0-inf) ([1]; rat, po, read-out: AUC0-inf): 1420 ng·h/mL; Cmax ([1]; rat, po, read-out: Cmax): 116 ng/mL; Tmax ([1]; rat, po, read-out: Tmax): 4 h
C=C(C)c1cc2cnc(Nc3ccc(N4CCN(C)CC4)cc3)nc2n1-c1cccc(N=S(C)(C)=O)n1 [Example 135, dimethyl((6-(2-((4-(4-methylpiperazin-1-yl)phenyl)amino)-6-(prop-1-en-2-yl)-7H-pyrrolo[2,3-d]pyrimidin-7-yl)pyridin-2-yl)imino)-λ^6-sulfanone] | 9.17 | 7.13 | –
CCCc1cc2cnc(Nc3ccc(N4CCC5(CCN(C)CC5)CC4)cc3)nc2n1-c1cccc(N=S(C)(C)=O)n1 [Example 123, ((6-(6-propyl-2-((4-(9-methyl-3,9-diazaspiro[5.5]undecan-3-yl)phenyl)amino)-7H-pyrrolo[2,3-d]pyrimidin-7-yl)pyridin-2-yl)imino)dimethyl-λ^6-sulfanone] | 9.52 | – | pIC50 [3]: 7.36
Cc1cc2cnc(Nc3ccc(N4CCC(N5CCN(C)CC5)CC4)cc3)nc2n1-c1cccc(N=S(C)(C)=O)n1 [Example 150] | 9.66 | 7.49 | –
Cc1cc(Nc2ncc3cc(C4CC4)n(-c4cccc(N=S(C)(C)=O)n4)c3n2)ccc1N1CCC(N2CCN(C)CC2)CC1 [Example 52, ((6-(2-((3-methyl-4-(4-(4-methylpiperazin-1-yl)piperidin-1-yl)phenyl)amino)-6-cyclopropyl-7H-pyrrolo[2,3-d]pyrimidin-7-yl)pyridin-2-yl)imino)dimethyl-λ^6-sulfanone] | 9.20 | 7.25 | –
CN1CCN(C2CCN(c3ccc(Nc4ncc5c(F)c(C6CC6)n(-c6cccc(N=S(C)(C)=O)n6)c5n4)cc3F)CC2)CC1 [Example 47, ((6-(5-fluoro-2-((3-fluoro-4-(4-(4-methylpiperazin-1-yl)piperidin-1-yl)phenyl)amino)-6-cyclopropyl-7H-pyrrolo[2,3-d]pyrimidin-7-yl)pyridin-2-yl)imino)dimethyl-λ^6-sulfanone] | 9.01 | 7.20 | –
CCCc1cc2cnc(Nc3ccc(N4CCN(C)CC4)cc3)nc2n1-c1cccc(N=S(C)(C)=O)n1 [Example 7, ((6-(6-propyl-2-((4-(4-methylpiperazin-yl)phenyl)amino)-7H-pyrrolo[2,3-d]pyrimidin-7-yl)pyridin-2-yl)imino)dimethyl-λ^6-sulfanone] | 9.04 | – | pIC50 [3]: 7.38
CCc1cc2cnc(Nc3ccc(N4CCN(C)CC4)cc3)nc2n1-c1cccc(N=S(C)(C)=O)n1 [Example 152] | 9.70 | 7.64 | –

Continued, in another order:

pIC50 [2] | pIC50 ([3]; Homo sapiens, 72 h) | Structure (SMILES) | further results
8.89 | – | CN1CCN(c2ccc(Nc3ncc4c(F)c(C5CC5)n(-c5cccc(N=S(C)(C)=O)n5)c4n3)cc2)C(CO)C1 (stereo not drawn) [Example 28] | pIC50 [3]: 7.40
9.32 | 7.28 | CN1CCC2(CC1)CCN(c1ccc(Nc3ncc4c(F)c(C5CC5)n(-c5cccc(N=S(C)(C)=O)n5)c4n3)cc1)CC2 [Example 126, ((6-(6-cyclopropyl-5-fluoro-2-((4-(9-methyl-3,9-diazaspiro(5.5)undecan-3-yl)phenyl)amino)-7H-pyrrolo[2,3-d]pyrimidin-7-yl)pyridin-2-yl)imino)dimethyl-λ^6-sulfanone] | –
9.28 | 7.16 | CCc1cc2cnc(Nc3ccc(N4CCC(N5CCN(C)CC5)CC4)cc3)nc2n1-c1cccc(N=S(C)(C)=O)n1 [Example 154, ((6-(6-ethyl-2-((4 (4-(4-methylpiperazin-1-yl)piperidin-1-yl)phenyl)amino)-7H-pyrrolo[2,3-d]pyrimidin-7-yl)pyridin-2-yl)imino)dimethyl-λ^6-sulfanone] | –
9.16 | – | CN(C)CCc1ccc(Nc2ncc3c(F)c(C4CC4)n(-c4ccnc(N=S(C)(C)=O)n4)c3n2)cc1 [Example 32, ((6-(5-fluoro-2-((4-(2-(dimethylamino)ethyl)phenyl)amino)-6-cyclopropyl-7H-pyrrolo[2,3-d]pyrimidin-7-yl)pyrimidin-2-yl)imino)dimethyl-λ^6-sulfanone] | pIC50 [3]: 7.51
9.01 | 7.05 | COc1cc(Nc2ncc3cc(C4CC4)n(-c4cccc(N=S(C)(C)=O)n4)c3n2)ccc1N1CCC(N2CCN(C)CC2)CC1 [Example 87, ((6-(6-cyclopropyl-2-((3-methoxy-4-(4-(4-methylpiperazin-1-yl)piperidin-1-yl)phenyl)amino)-7H-pyrrolo[2,3-d]pyrimidin-7-yl)pyridin-2-yl)imino)dimethyl-λ^6-sulfanone] | –
9.04 | 7.07 | Cc1cc2cnc(Nc3ccc(N4CCC5(CCN(C)CC5)CC4)cc3)nc2n1-c1cccc(C(C)(C)O)n1 [Example 147, 2-(6-(6-methyl-2-((4-(9-methyl-3,9-diazaspiro[5.5]undecan-3-yl)phenyl)amino)-7H-pyrrolo[2,3-d]pyrimidin-7-yl)pyridin 2-yl)propan-2-ol] | –
